Here are results for 8 compounds from patent US20240190866A1, “POLYHYDROXYLATED INDOLIZIDINE AND PYRROLIZIDINE DERIVATIVES AND USES THEREOF” (Academia Sinica, priority 2021, published 2024).

The target in series [1] is human lysosomal α-mannosidase (α-hLM) (Homo sapiens (Human), UniProt O00754). Nature of the series: α-Mannosidase (α-hLM) activity assay, 4-MU-α-D-mannopyranoside substrate. The class given is biochemical. To be noted: pH 4.6, 37° C., 1 h. As to the method: (§1) Compounds were diluted to give the final concentration of 100 μM and mixed with 4-MU-α-D-mannopyranoside as substrate and human Golgi α-mannosidase II in phosphate buffer (0.1 M Sodium phosphate dibasic, pH 7.0) or human lysosomal α-mannosidase in citric phosphate buffer (0.1 M Sodium phosphate monobasic monohydrate, 0.5 mM citric acid monohydrate, pH 4.6). The assay was carried out at 37° C. for a certain time (1 h for α-hLM, 2 h for α-hGMII). Stop solution (0.5 M K2CO3(aq), pH 10.8) was then added to the reactions and the fluorescence was determined at 355 nm excitation and 460 nm emission (SpectraMax M5, Molecular Devices). Inhibition was performed as relative enzyme activity to control. The active compounds were selected for libraries preparation and further tested at lower concentration to determine their IC50 values. The assays performed in 384-wells of the microtiter plates.
Sequence of human lysosomal α-mannosidase (α-hLM) (O00754 50-1011): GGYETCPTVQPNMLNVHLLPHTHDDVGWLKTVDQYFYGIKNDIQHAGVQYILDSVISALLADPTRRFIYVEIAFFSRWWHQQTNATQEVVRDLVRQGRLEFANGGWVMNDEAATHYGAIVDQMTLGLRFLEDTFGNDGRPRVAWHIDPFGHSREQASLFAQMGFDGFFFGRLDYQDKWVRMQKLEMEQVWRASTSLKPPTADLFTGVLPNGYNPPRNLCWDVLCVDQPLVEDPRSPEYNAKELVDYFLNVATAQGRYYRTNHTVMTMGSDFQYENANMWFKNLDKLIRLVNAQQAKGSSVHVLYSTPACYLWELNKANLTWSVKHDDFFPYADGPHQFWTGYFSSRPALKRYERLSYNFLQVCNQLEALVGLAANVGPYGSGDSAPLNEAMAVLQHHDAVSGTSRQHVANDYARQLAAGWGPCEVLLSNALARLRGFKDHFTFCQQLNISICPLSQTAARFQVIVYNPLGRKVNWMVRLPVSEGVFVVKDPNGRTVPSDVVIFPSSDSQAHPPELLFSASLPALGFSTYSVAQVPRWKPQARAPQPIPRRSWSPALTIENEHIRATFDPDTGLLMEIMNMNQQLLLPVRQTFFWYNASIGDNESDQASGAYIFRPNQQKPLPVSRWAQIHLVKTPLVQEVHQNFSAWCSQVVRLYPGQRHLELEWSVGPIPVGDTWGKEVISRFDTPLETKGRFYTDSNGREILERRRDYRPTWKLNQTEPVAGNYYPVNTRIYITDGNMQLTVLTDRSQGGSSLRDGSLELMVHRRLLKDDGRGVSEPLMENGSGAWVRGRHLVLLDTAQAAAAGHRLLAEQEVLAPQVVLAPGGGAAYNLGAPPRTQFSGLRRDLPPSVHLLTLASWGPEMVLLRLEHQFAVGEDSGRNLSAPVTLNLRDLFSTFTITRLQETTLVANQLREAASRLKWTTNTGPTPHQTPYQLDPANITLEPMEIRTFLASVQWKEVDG

For series [2], the target named is human Golgi α-mannosidase II (α-hGMII) (Homo sapiens (Human), UniProt Q16706). Nature of the series: Golgi α-mannosidase II (α-hGMII) activity assay, 4-MU-α-D-mannopyranoside substrate. In kind it is biochemical. Particulars: for IC50: pH 7.0, 37° C., 2 h; for Selectivity Index (SI): selectivity toward α-hGMII than α-hLM. As to the method:
as §1

Series [3] has as its system HepG2 cells. Kind of series: Anti-proliferative activity assay (MTT). The class given is cell-based, human. Particulars: 72 h. How it is done: (§2) Human liver cancer HepG2 cells and Huh7 cells, breast cancer MDA-MB-231 cells, pancreatic cancer PANC-1 cells, and non-small cell lung (NSCL) cancer H1975 cells were maintained in Dulbecco's Modified Eagle Medium supplemented containing 10% fetal bovine serum (FBS), 100 units/ml penicillin and […] streptomycin in 37° C. incubator with 5% CO2.
(§3) Anti-proliferative activity of HepG2, Huh7 or PANC-1 cells was determined by 3-(4,5-dimethylthiazol-2-yl)-2,5-diphenyltetrazolium bromide (MTT) assay, while that of H1975 or MDA-MB-231 cells was determined by luminescent assay with the aid of commercial kit CellTiter-Glo® (Promega).
(§4) Cancer cells including HepG2, Huh7 and PANC-1 cells were respectively seeded at 10^4, 4×10^3, and 5×10^3 cells/well in 96-well plates and maintained for 14-16 hours. Cells were treated with dimethylsulfoxide (DMSO) or test compounds in varied concentrations for 72 h. Cells were then washed with PBS twice, added a medium containing 3-(4,5-dimethylthiazol-2-yl)-2,5-diphenyltetrazolium bromide (MTT) at a final concentration of 0.5 mg/mL, and incubated for 4 h at 37° C. in a humidified incubator containing 5% CO2 in air. Cells having functional succinate dehydrogenase of mithchondria would convert MTT to formazan. Then, the medium was replaced with 100 μL of DMSO for 30 min at room temperature, and the 96-well plate was read by an ELISA reader at 550 nm to get the absorbance density values. The IC50 values of death cell lines were calculated accordingly.

The test system of series [4] is Huh7 cells. Nature of the series: Anti-proliferative activity assay (MTT). Particulars: 72 h. The class given is cell-based, human. How it is done:
as §2, §3, §4

Series [5] concerns PANC-1 cells. Nature of the series: Anti-proliferative activity assay (MTT). In kind it is cell-based, human. To be noted: 72 h. How it is done: as §2, §3, §4
The next series relates to H1975 cells. Nature of the series: Anti-proliferative activity assay (CellTiter-Glo). The class given is cell-based, human. Particulars: 48 h. As to the method: as §2, §3
(§5) For H1975 and MDA-MB-231, cells were respectively seeded at 5×10^3 cells/well in 96-well plates and maintained for 14-16 hours. Cells were treated with dimethylsulfoxide (DMSO) or test compounds in varied concentrations for 48 h. Cell viability was monitored using Cell-TiterGlo (Promega), a kit that measures the quantity of ATP present in the cell culture, an indicator of metabolically active cells. The IC50 values of death cell lines were calculated accordingly.

For the next series, the system named is MDA-MB-231 cells. Kind of series: Anti-proliferative activity assay (CellTiter-Glo). The class given is cell-based, human. How it is done:
as §2, §3, §5

Series [6] deals with all cancer cell lines (HepG2, Huh7, PANC-1, H1975, MDA-MB-231). Nature of the series: Anti-proliferative activity, pooled statement over all cancer cell lines. In kind it is cell-based, human. To be noted: read-out: half maximum inhibitory concentration (IC50), range in all cancer cell lines. As to the method: as §3, §4, §5
Series [7] has as its system Huh7 cells. Kind of series: Transwell migration assay. To be noted: 18 hours. In kind it is cell-based, human. As to the method:
(§6) Chemotaxis experiments with human HepG2Huh7, or PANC-1 cells were assayed by using transwells (Millipore). The cells to be analyzed (5×10^4 cells/well) were seeded in the upper chambers of the 24-well plate in 400 μL serum-free medium. FBS (10%) was used as the chemoattractant with or without different concentrations of the test compound (e.g., ACK900, ACK901, ACK902) in the lower chamber, and the plate was incubated under standard conditions. After incubation for 18 hours, the media in the upper chambers were aspirated and washed with phosphate-buffered saline (PBS) twice. Both non-migrated and migrated cells were fixed with 4% paraformaldehyde (PFA) for 30 minutes at room temperature, stained with 2% crystal violet solution. The non-invading cells were removed from the upper surface of the insert membrane with a cotton swab. The images were taken using an imaging reader (Cytation 5, BioTek, VT, U.S.A.) and analyzed using NIH ImageJ software. Percent in the results represent percent of initial number of cells in the migrating and nonmigrating Cell fractions.

Series [8] relates to PANC-1 cells. Kind of series: Transwell migration assay. The class given is cell-based, human. To be noted: PANC-1, transwell, 18 hours. As to the method: as §6
Series [9] relates to Huh7 cells. Nature of the series: Transwell invasion assay. In kind it is cell-based, human. As to the method: as §6
The subject of series [10] is PANC-1 cells. Nature of the series: Transwell invasion assay. The class given is cell-based, human. To be noted: PANC-1, transwell. As to the method:
as §6

Series [11] can be described thus: Serum biochemistry assay in Huh7 xenograft mice. The class given is in vivo, NOD-SCID mice. To be noted: 30 mg/kg i.p., twice a week; for ALT / AST / BUN / CRE / TBIL: serum. How it is done:
All blood specimens were collected in tubes and were left at 25° C. for 30 min to clot and centrifuged for 10 min at 1200 g. The concentrations of the following biochemical serum analytes collected were measured with FUJI DRI-CHEM 500i analyzer (FUJIFILM Corp., Tokyo, Japan) using the manufacturer's reagents and according to the manufacturer's instructions: Alanine Aminotransferase ALT), Aspartate Aminotransferase (AST), Blood Urea Nitrogen (BUN), Creatinine (CRE) and Total Bilirubin (TBIL).
(§7) HCC xenografts were established in 5-6 weeks old NOD-SCID mice by subcutaneous inoculation of about 5×10^6 Huh7 cells suspended in 50 μL PBS+50 μL, Matrigel (Corning, 394230) in the left and right flanks of each mouse. After one week of inoculation, tumors were palpable and the mice were assigned randomly to 1 of 4 treatment groups. Group 1 (vehicle control group, n=6) mice only received a vehicle solution containing Kolliphor EL (Sigma Aldrich, C5135), 99.9% ethanol and water in a ratio of 1:1:6. Groups 2, 3, 4 and 5 mice were intraperitoneally injected with the test compound (e.g., compound ACK900, ACK901, or ACK902) (30 mg/kg, ip, n=7/group) or sorafenib (30 mg/kg, ip, n=6/group), twice per week for 25 days. The tumor volume was calculated by the formula of a ratioinal ellipsoid: [0.5236×short axis) m1^2×(long axis)m^2], and the tumor volume was measured twice per week. All mice were sacrificed at 27 days after the treatment started. Tumor tissues were isolated, photographed and weighted.
In vivo tumor growth inhibition studies in human Huh7 xenograft rodents were performed in accordance with procedures as described in the “Material and Method” section. Xenograft tumors were generated by implanting Huh7 cells (5×10^6) subcutaneously into the left and right flanks of each NOD-SCID mouse. Starting on the 7th day after the inoculation of Huh7 cells, the mice were injected with ACK900, ACK901, ACK902 or sorafenib intraperitoneally (i.p.) at a dose of 30 mg/kg and twice a week for 34 days.

The subject of a further series is Huh7 xenograft tumors. Kind of series: Human hepatocarcinoma (HCC) Huh7 cells xenograft animal model. In kind it is in vivo, NOD-SCID mice. To be noted: 30 mg/kg i.p., twice a week.
Excerpt: A total of 34 NOD-SCID mice to (5- to 6-week-old) were maintained in micro-isolator units on a standard laboratory diet. Animals were housed under humidity- and temperature-controlled conditions and the light/dark cycle was set at 12-hour intervals, maintained under specified and opportunistic pathogen-free conditions. Mice were quarantined at least 1 week before experimental manipulation
as §7, with “weighted. […]” for “weighted.”

Series [12] concerns HepG2 cells. Particulars: Data from Int. J. Med. Sci. 2017, 14, 523; cited from earlier work.
The test system of series [13] is Huh7 cells. Particulars: Data from Int. J. Med. Sci. 2017, 14, 523; cited from earlier work.

Read-outs that look alike come from different tables or passages of the source.

Sequence of human Golgi α-mannosidase II (α-hGMII) (Q16706 whole entry): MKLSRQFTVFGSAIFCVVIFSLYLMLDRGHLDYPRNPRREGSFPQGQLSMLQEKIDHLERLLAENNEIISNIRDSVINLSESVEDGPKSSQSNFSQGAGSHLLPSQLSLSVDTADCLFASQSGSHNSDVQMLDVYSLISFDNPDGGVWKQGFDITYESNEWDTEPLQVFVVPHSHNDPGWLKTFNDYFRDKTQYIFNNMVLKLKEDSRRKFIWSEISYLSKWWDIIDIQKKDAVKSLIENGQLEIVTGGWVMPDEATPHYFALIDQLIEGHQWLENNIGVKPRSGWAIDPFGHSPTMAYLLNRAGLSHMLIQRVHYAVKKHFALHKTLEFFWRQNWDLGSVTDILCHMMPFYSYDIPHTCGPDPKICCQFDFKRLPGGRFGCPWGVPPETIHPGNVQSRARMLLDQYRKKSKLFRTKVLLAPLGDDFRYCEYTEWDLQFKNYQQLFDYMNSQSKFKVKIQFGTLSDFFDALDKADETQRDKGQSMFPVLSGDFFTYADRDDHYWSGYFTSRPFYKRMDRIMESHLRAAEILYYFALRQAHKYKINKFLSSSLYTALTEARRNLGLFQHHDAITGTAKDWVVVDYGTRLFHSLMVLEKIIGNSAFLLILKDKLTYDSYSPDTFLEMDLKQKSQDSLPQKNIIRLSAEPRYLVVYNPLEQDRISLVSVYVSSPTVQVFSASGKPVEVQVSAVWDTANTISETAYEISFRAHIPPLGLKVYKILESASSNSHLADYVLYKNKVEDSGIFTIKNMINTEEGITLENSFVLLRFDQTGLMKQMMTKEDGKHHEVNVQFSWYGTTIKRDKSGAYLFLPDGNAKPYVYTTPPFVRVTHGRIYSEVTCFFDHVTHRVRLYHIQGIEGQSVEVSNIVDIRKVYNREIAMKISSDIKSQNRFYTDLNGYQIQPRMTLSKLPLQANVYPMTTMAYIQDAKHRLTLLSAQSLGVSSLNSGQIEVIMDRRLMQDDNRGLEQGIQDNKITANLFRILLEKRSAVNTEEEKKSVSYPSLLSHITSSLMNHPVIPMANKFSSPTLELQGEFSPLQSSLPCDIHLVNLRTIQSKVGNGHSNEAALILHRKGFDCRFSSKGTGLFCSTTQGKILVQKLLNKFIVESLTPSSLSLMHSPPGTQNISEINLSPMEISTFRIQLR

`CCCCCC[C@H]1CC[C@H](c2ccc(NC(=S)NC[C@@H]3[C@@H](O)[C@@H](O)[C@H]4[C@H](O)CCCN43)cc2)CC1` [ACK901]: the IC50 in [1] amounted to 21.5 µM; in series [2], 1 µM; in the series with HepG2 cells [3] it was 1.8 µM; in the series on Huh7 cells [4], 1.3 µM; with PANC-1 cells [5], 0.3 µM; in the series on H1975 cells it was 7.7 µM. Moreover, the IC50 was 1 µM with MDA-MB-231 cells (48 h) and 0.3 to 19.1 µM in [6]. In addition, the migratory capability result in the series with Huh7 cells [7] and in the series on PANC-1 cells [8] was “remarkably decreased” throughout. The invasive capability result with Huh7 cells [9] and in the series on PANC-1 cells [10] was “remarkably decreased” in each case. Further, the ALT in series [11] worked out at 74.85 ± 82.13 U/L. Moreover, the AST in [11] was 173.85 ± 95.67 U/L. Moreover, the BUN in [11] amounted to 21.87 ± 3.77 mg/dL. The compound further yielded a CRE in series [11] of 0.47 ± 0.18 mg/dL. Further, the TBIL in series [11] stood at 0.64 ± 0.37 mg/dL.
`CCC[C@H]1CC[C@H](c2ccc(C(=O)NC[C@@H]3[C@@H](O)[C@@H](O)[C@H]4[C@H](O)CCCN43)cc2)CC1` [ACK902]: the IC50 is 6.8 µM in series [1]; 1.6 µM in series [2]; 14.5 µM in the series with HepG2 cells [3]; 3.7 µM in the series with Huh7 cells [4]; 1.6 µM in the series on PANC-1 cells [5]; 11.5 µM with H1975 cells. Also, the IC50 in the series with MDA-MB-231 cells (48 h) was 9.9 µM; in series [6], 0.3 to 19.1 µM. Further, the “Selectivity Index (SI)” value in series [2] stood at 4.3. Further, the migratory capability result with Huh7 cells [7] and with PANC-1 cells [8] was “remarkably decreased” throughout. For the same compound, the invasive capability result in the series on Huh7 cells [9] and with PANC-1 cells [10] was “remarkably decreased” each time. The compound further yielded an ALT in [11] of 64.42 ± 57.49 U/L. This compound also had an AST in [11] of 250 ± 182.44 U/L. In series [11], this compound displayed a BUN of 23.87 ± 4.30 mg/dL. The compound further yielded a CRE in series [11] of 0.43 ± 0.11 mg/dL. Also, the TBIL in series [11] was found to be 0.9 ± 0.56 mg/dL.
Take `O=C(NC[C@@H]1[C@@H](O)[C@@H](O)[C@H]2[C@H](O)CCCN21)c1ccc(-c2ccccc2)cc1` [ACK903]: the IC50 in series [1] is 0.65 µM. In addition, in [2], the IC50 amounted to 0.19 µM and the “Selectivity Index (SI)” value was determined as 3.4.
On to `COc1ccc(NC(=S)NC[C@@H]2[C@@H](O)[C@@H](O)[C@H]3[C@H](O)CCCN32)cc1` [ACK904], for which the results for the IC50 in series [1] and in series [2] were 0.95 µM and 0.8 µM, respectively. Further, the “Selectivity Index (SI)” value in series [2] was found to be 1.2.
In [1], `O[C@@H]1[C@H](O)[C@@H](CNC(=S)Nc2ccccc2)N2CCC[C@@H](O)[C@H]12` [ACK905] showed an IC50 of 1.5 µM. Also, in series [2], the IC50 is 1.3 µM and the “Selectivity Index (SI)” value is given as 1.1.
For the compound `COc1cccc2c1C(=O)c1c(O)c3c(c(O)c1C2=O)C[C@@](O)(C(=O)CO)C[C@@H]3O[C@H]1C[C@H](N)[C@H](O)[C@H](C)O1` [Doxorubicin, doxorubicin, reference compound], the IC50 in the series with MDA-MB-231 cells (Homo sapiens, MDA-MB-231, 48 h) was 1.3 to 3 µM.
Turning to `CNC(=O)c1cc(Oc2ccc(NC(=O)Nc3ccc(Cl)c(C(F)(F)F)c3)cc2)ccn1` [Sorafenib, sorafenib, reference compound], the “signs of harm or decreased body weight” value in the series with Huh7 xenograft tumors is “none of the mice injected with ACK900-ACK902 or sorafenib exhibited signs of harm or decreased body weight”. In the series on Huh7 xenograft tumors (P<0.05), the “tumor volume vs control” value is reported as “Significant reduction”. Moreover, in [11], the “serious side effects including hepatoxicity and nephrotoxicity” value is “no serious side effects including hepatoxicity and nephrotoxicity were observed”; the ALT was found to be 61.33 ± 54.45 U/L; the AST was 135.33 ± 90.76 U/L; the BUN worked out at 23 ± 2.53 mg/dL. Further, in series [11], the CRE was 0.35 ± 0.19 mg/dL and the TBIL was determined as 0.73 ± 0.32 mg/dL. The IC50 with HepG2 cells [12] is 7.42 µM. In addition, the IC50 in the series with Huh7 cells [13] was 5.97 µM.
Turning to `O[C@H]1[C@H]2[C@H](O)CCCN2C[C@H]1O` [Swainsonine, swainsonine, reference compound], in [2], the IC50 is 0.04 µM and the “Selectivity Index (SI)” value stood at 2.
